Consider one molecule from patent US20160136295A1, “BIOMARKERS FOR TREATMENT WITH ANTI-TUBULIN CHEMOTHERAPEUTIC COMPOUNDS” (GENENTECH, INC., priority 2012, published 2016).

Experiment [1] concerns murine embryonic fibroblasts (MEFs). Put plainly: Viability of BCL2-family-member-null MEFs by propidium iodide staining after anti-tubulin agents. The format is cell-based. Particulars: for killing (cell viability): treated 48 hours; for sensitivity to killing: 48 hours. The protocol: (§1) The viability of cancer cell lines, and MEFs in which genes encoding IAPs had been knocked out, was analysed by using the CellTiter-Glo Luminescent Cell Viability Assay® (Promega). Cells were treated in triplicate with anti-tubulin agents for the indicated times, using dimethylsulphoxide treatment as a control. The viability of BCL2-family-member-null MEFs was analysed by propidium iodide staining, as described previously (Chen, L. et al. (2005) Molecular cell 17:393-403), after treatment with anti-tubulin agents for 48 h. Cell synchronization was achieved by culture either in serum-free medium for 12-16 h or in medium containing 2 mM thymidine for 18-24 h, release from the thymidine block with three washes in PBS, followed by culture for 8-12 h in complete growth media (compositions are described in the Supplementary Information). Cells then underwent a second thymidine block for 16-20 h, three further washes in PBS and release into complete medium containing the indicated reagents. To block MCL1 degradation, […] MG132 was added as cells entered mitotic arrest, as assessed by visual inspection. See the Examples for full methods.

Experiment [2] has as its system MEFs in which genes encoding IAPs had been knocked out. Put plainly: Cell viability of MEF cell lines deficient in IAP genes (CellTiter-Glo). The conditions noted are these: IAP-deficient MEFs plus siRNA, 48 hours. The format is cell-based, murine. On the procedure: as §1
In experiment [3] the test system is TOV112D-X1 ovarian tumors. Put plainly: Ovarian tumor xenografts in vivo. Set-up: species or system athymic nu/nu mice. The conditions noted are these: tumors expressing FBW7-R505L vs FBW7-wild-type; 20 mg/kg intravenous, days 21 and 23 post implant. The protocol: Wild-type FBW7 TOV112D-X1 ovarian cancer cells expressing either an empty vector (vector) or the R505L point mutant (FBW7-R505L) were resuspended in Matrigel® (BD Biosciences) at a density of 1×10^8 cells/mL, and […] Matrigel® grafts containing 1×10^6 cancer cells were implanted under the kidney capsule of 8-week-old athymic nu/nu mice (Harlan Sprague Dawley). Only one graft was implanted per mouse. Once tumors became palpable on the kidney surface, tumor growth was assessed three times per week via caliper measurements of the entire kidney volume (0.523×length×width×height). On day 21 post-implant, when tumors reached an average volume of 700 mm^3, paclitaxel (APP Pharmaceuticals) was administered to both FBW7-WT and FBW7-R505L tumor groups via intravenous tail vein injection at 20 mg/kg in 5% dextrose water. Paclitaxel administration was repeated on day 23 post-implant. Statistical differences were evaluated using a two-tailed Student's t-test. P values of less than 0.05 were considered significant.

Experiment [4] deals with ovarian cancer cell lines. Nature of the experiment: Mitotic arrest in asynchronous ovarian cancer cell lines (western blot, phospho-histone H3 ELISA). Format: cell-based, human. The conditions noted are these: unsynchronized cell lines, 200 nM paclitaxel. On the procedure:
The unsynchronized cell lines (with FBW7 status specified in parentheses) were treated with 200 nM paclitaxel and were subsequently collected at the indicated time points for western blot and phospho-histone H3 ELISA analysis.
In general terms: A western blot detects proteins with antibodies after separation by electrophoresis.

For experiment [5], the system named is FBW7-WT, FBW7−/− or FBW7 mutant colon cancer cell lines (HCT116, DLD1). Nature of the experiment: Cell viability of colon cancer cell lines by FBW7 status (CellTiter-Glo). The format is cell-based, human. The conditions noted are these: 48 hours. The protocol:
as §1
were synthesized by Ambion and experiments were performed as described (Huang, H. C., et al (2009) Cancer cell 16:347-358). For viability experiments using stable cell lines transfected with doxycycline-inducible shRNAs to LacZ or Mcl-1 ORF, cells were plated in 10 cm2 plates with 0.2 μg/mL doxycycline for two days. On the third day, cells were plated in to 96-well plates at 5×10^3 per well for viability assays as described above. […] For western blot analysis, cells were harvested at indicated time points and processed as described above.

Experiment [6] concerns ovarian cancer cell lines. Put plainly: Cell viability of ovarian cancer cell lines by FBW7 status. Format: cell-based, human. Particulars: FBW7-wild-type ovarian cancer cell lines that undergo mitotic arrest, relative to FBW7-mutant cells. On the procedure: as §1
The test system of a further experiment is Mcl-1. Put plainly: Mcl-1 protein level / degradation in mitotic arrest (western blot of synchronized cells). The format is cell-based, human. The conditions noted are these: synchronized cells (HeLa) released into the agent. On the procedure:
as §1
Western blotting was performed essentially as described (Wertz, I. E. et al. (2004) Science (New York, N.Y 303:1371-1374). In brief, cells were lysed in corrected FLAG elution buffer (CFEB) (19.17 mM Tris (pH 7.5), 916.7 μM MgCl2, 92.5 mM NaCl and 0.1% Triton X-100) with protease and phosphatase inhibitors; in some cases 6 M urea was added. Cleared lysates were quantitated and equal amounts of proteins were reduced, alkylated, separated by SDS-PAGE, and transferred onto PVDF membranes (Invitrogen) following standard procedures. Western blotting was performed as recommended by the respective antibody manufacturers. Patient tissue and xenograft samples were lysed in 5× volume of CFEB with protease inhibitors using Fast prep 24 (MP Biologicals). Tissue lysates were cleared and 40 μg total protein was prepared for western blotting analysis as described above. Immunoprecipitations were performed with the indicated antibodies as described (Willis, S. N. et al. (2007) Science (New York, N.Y 315:856-859; Wertz, I. E. et al. (2004) Science (New York, N.Y 303:1371-1374). PP2A activity was performed on PP2A or Mcl-1 immunoprecipitates as recommended by the manufacturer (Upstate)

In the next experiment the test system is HCT116 cells. Put plainly: Live time-lapse imaging of mitotic fate. Format: cell-based, human. The protocol:
HCT116 parental or FBW7−/− cells expressing shLacZ or shMcl-1 were plated at 15,000-30,000 cells per well in 96-well μ-plates (ibidi GmbH) and infected with GFP-H2B baculovirus (Invitrogen) 24 hours prior to adding paclitaxel or vincristine. Cells were imaged live at 37° C. with 5% CO2 using a Nikon TiE® microscope with a Cool Snap® CCD camera (Roper Scientific) and a Plan Apo VC 20× 0.75 NA objective. Three images with 6 μm z-steps were acquired for each position every 10 minutes for 43 hours. Mitotic fate was analyzed manually using NIS-Elements software (Nikon) and numerical data was complied and statistically analyzed using Excel (Microsoft). Fifty mitotic cells were analyzed for each condition and p-values were calculated for the change in the number of cells that exited mitosis or entered apoptosis using the one-tailed Fisher's exact test.

Take `CC(=O)O[C@H]1C(=O)[C@@]2(C)[C@H]([C@H](OC(=O)c3ccccc3)[C@]3(O)CC(OC(=O)[C@H](O)[C@@H](NC(=O)c4ccccc4)c4ccccc4)C(C)=C1C3(C)C)[C@]1(OC(C)=O)CO[C@@H]1C[C@@H]2O` (relative stereo) [paclitaxel, β-(benzoylamino)-α-hydroxy-,6,12b-bis(acetyloxy)-12-(benzoyloxy)-2a,3,4,4a,5,6,9,10,11,12,12a,12b-dodecahydro-4,11-dihydroxy-4a,8,13,13-tetramethyl-5-oxo-7,11-methano-1H-cyclodeca(3,4)benz(1,2-b) oxet-9-ylester,(2aR-(2a-α,4-β,4a-β,6-β,9-α(α-R*,β-S*),11-α,12-α,12α-α,2b-α))-benzenepropanoic acid]: the “killing (cell viability)” value in experiment [1] (BAX−/−/BAK−/− MEFs) is listed as “resistant”; in experiment [1] (wild-type MEFs), “significantly more sensitive”. In addition, the sensitivity to killing entry in experiment [1] (BCL-X−/− MEFs vs wild-type) is “more sensitive than wild-type cells”; in experiment [1] (MCL-1−/− MEFs vs wild-type), “enhanced sensitivity”. The “cell sensitivity upon ablation of IAP family proteins” value in experiment [2] is listed as “does not enhance cell sensitivity”. Also, the “tumor resistance (tumor volume growth curves)” value in experiment [3] was “more resistant”. The mitotic arrest entry in experiment [4] is given as “arrested in mitosis”. In experiment [5] (FBW7-null HCT116 cells, doxycycline-inducible Mcl-1 shRNA), the “sensitivity to drug-induced death upon reducing Mcl-1 protein” value is “restored their sensitivity”. The “resistance to drug-induced cell death” value in experiment [5] (FBW7-null cell lines relative to wild-type cells) and in experiment [5] (FBW7−/− or FBW7 mutant colon cancer cell lines relative to FBW7-WT) was “more resistant” throughout. Further, the “sensitivity (cell viability)” value in experiment [6] is reported as “sensitive”. Moreover, the “Mcl-1 protein level in mitotic arrest” value in the experiment with Mcl-1 was “declined markedly”. Also, the “drug-induced apoptosis upon decreasing Mcl-1 protein levels” value in the experiment with HCT116 cells (FBW7-null cells with Mcl-1 shRNA vs control shRNA) is “enhanced”. For the same molecule, the “exit from drug-induced mitotic arrest (mitotic slippage)” value with HCT116 cells (FBW7-null vs FBW7-wild-type cells) is “more readily”.
